In patent publication US20040266732A1, “Therapeutic agents, methods, and treatments” (priority 2002, published 2004):

Columns and labels:
[1] = test system: NCI-H226 human non-small cell lung cancer cell line; assay: MTS assay; format: cell-based
Protocol: Methods The MTS assay was employed in the evaluation of these compounds. The cells were harvested, centrifuged to remove the medium, and suspended in fresh complete medium. Samples were taken to determine cell density. The cell count was determined with a Coulter Model Z cell counter and viability was measured with propidium iodine staining call by analysis on Coulter EPICS flow cytometer. The cell line was plated at 5×10^3 cells per well in complete medium. On the following day, the cells were closed with the dilutions of the compound. The plates were analyzed on Day for after initiation of treatment.
The cell line was propagated using standard tissue culture procedures and seeded in microtiter plates prior to dosing. Control groups included a mock treatment, media control, and a positive control (doxorubicin, 1 μM). For each concentration level, eight replicates were treated. The cell line was propagated under sterile conditions at 37° C. in 5% CO2 and 95% humidity. MT103 was stored at 4° C. until dissolved and diluted in complete medium.
Anti-cellular effects of the compound were assessed with the MTS dye conversion assay. MTS was purchased as a single solution, and stored at −20° C. […] The absorbance of formazan in each monolayer was measured at 490 nm on a Coulter microplate reader at four hours after addition of the MTS.

HOP-92 = assay: Anchorage-independent colony-forming assay; format: cell-based, human; conditions: for % Inhibition: colonies Day 14
Protocol: (§1) Testing was conducted employing standard tissue culture techniques and an anchorage-independent colony-forming assay.
(§2) MT103 was tested against the lung carcinoma cell lines NCI-H226, NCI-H522, and HOP-92. An anchorage-independent colony-forming assay was employed. For the experiment, the cells were harvested, centrifuged to remove the media, and suspended in Iscove's Modified Dulbecco's Medium (IMDM). Samples were taken to determine cell density. The cell count was determined with a Coulter Model Z1 cell counter and viability was measured with propidium iodide staining followed by analysis on a Coulter EPICS XL flow cytometer. Each cell line was plated at 1×10^5 cells per dish (35 mm) in IMDM with 20% FBS and 1% methylcellulose containing the appropriate concentration of test compound or DMSO control. Five concentrations of each compound and a DMSO control were tested in each of the three cell lines. The colonies per plate were counted on Day 14 after the initiation of treatment. The cell lines were propagated under sterile conditions and incubated at 37° C. in HEPA-filtered CO2 tissue culture incubators with 5% CO2 and 95% humidity. The cell line was subcultured weekly to bi-weekly and used in experiments. The test compounds were kept refrigerated under light protected conditions until dissolved in DMSO.
(§3) Anticellular effects of the compounds on the tumor line were assessed with a colony-forming assay. Briefly, cell were harvested and adjusted to 3×10^6 viable cells/mL in IMDM. Compounds (200×) were prepared in DMSO and serially diluted in DMSO to give appropriate testing concentrations. Cells (100 μL), compound or DMSO control (16.5 μL) and IMDM (183.5 μL) were added to the appropriate assay tubes (12×75 mm) containing 3 mL of complete media, IMDM with 20% FBS and 1% methylcellulose. Tubes were then vortexed and 1.1 mL of the cell suspension was added to each of two 35 mm dishes. These dishes were then incubated for 14 days in HEPA-filtered CO2 tissue culture incubators with 5% CO2 and 95% humidity. The colonies in each dish were then counted and the duplicates were averaged and reported

NCI-H226 = assay: Anchorage-independent colony-forming assay; format: cell-based, human; conditions: for % Inhibition: colonies Day 14
Protocol: as §1, §2, §3

NCI-H522 = assay: Anchorage-independent colony-forming assay; format: cell-based, human; conditions: for % Inhibition: colonies Day 14
Protocol: as §1, §2, §3

CC1(C)C2CC[C@@]1(CS(=O)(=O)N(C1CCCCC1)C1CCCCC1)C(O)C2 (stereo partly shown) [MT103]
GI50 [1]: 66 µM | IC50 (HOP-92; HOP-92, colony-forming assay): 24.2 µM | % Inhibition (HOP-92; HOP-92, 0.8 μM): 0% | % Inhibition (HOP-92; HOP-92, 4 μM): 0% | % Inhibition (HOP-92; HOP-92, 20 μM): 43.3% | % Inhibition (HOP-92; HOP-92, 100 μM): 100% | % Inhibition (HOP-92; HOP-92, 500 μM): 100% | −logGI50 value (HOP-92; HOP-92, see Table 5): 4.6 | IC50 (NCI-H226; NCI-H226, colony-forming assay): 8.39 µM | % Inhibition (NCI-H226; NCI-H226, 0.8 μM): 3.1% | % Inhibition (NCI-H226; NCI-H226, 4 μM): 36.7% | % Inhibition (NCI-H226; NCI-H226, 20 μM): 65.6% | % Inhibition (NCI-H226; NCI-H226, 100 μM): 92.2% | % Inhibition (NCI-H226; NCI-H226, 500 μM): 99.7% | −logGI50 value (NCI-H226; NCI-H226, see Table 5): 5.1 | IC50 (NCI-H522; NCI-H522, colony-forming assay): 81.7 µM | % Inhibition (NCI-H522; NCI-H522, 0.8 μM): 0% | % Inhibition (NCI-H522; NCI-H522, 4 μM): 0% | % Inhibition (NCI-H522; NCI-H522, 20 μM): 0% | % Inhibition (NCI-H522; NCI-H522, 100 μM): 57.2% | % Inhibition (NCI-H522; NCI-H522, 500 μM): 100% | −logGI50 value (NCI-H522; NCI-H522, see Table 5): 4.1
